Results: ChEMBL document CHEMBL2046397, “Design and synthesis of 5-(substituted benzylidene)thiazolidine-2,4-dione derivatives as novel tyrosinase inhibitors” (Eur J Med Chem, 2012)
Activity calls are given as the source filed them. No cut-off for these calls is given here.

What was measured:
B16 [1] = test: Cytotoxicity against mouse B16 cells at 0.1 to 10 uM after 8 hrs by MTT assay; format: cell-based; conditions: b16, 8 h
Tyrosinase = target: T1, Tyrosinase (Agaricus bisporus, UniProt O42713); test: Inhibition of mushroom tyrosinase activity using L-tyrosine as substrate after 30 mins by spectrophotometric analysis
T1 sequence (O42713 whole entry): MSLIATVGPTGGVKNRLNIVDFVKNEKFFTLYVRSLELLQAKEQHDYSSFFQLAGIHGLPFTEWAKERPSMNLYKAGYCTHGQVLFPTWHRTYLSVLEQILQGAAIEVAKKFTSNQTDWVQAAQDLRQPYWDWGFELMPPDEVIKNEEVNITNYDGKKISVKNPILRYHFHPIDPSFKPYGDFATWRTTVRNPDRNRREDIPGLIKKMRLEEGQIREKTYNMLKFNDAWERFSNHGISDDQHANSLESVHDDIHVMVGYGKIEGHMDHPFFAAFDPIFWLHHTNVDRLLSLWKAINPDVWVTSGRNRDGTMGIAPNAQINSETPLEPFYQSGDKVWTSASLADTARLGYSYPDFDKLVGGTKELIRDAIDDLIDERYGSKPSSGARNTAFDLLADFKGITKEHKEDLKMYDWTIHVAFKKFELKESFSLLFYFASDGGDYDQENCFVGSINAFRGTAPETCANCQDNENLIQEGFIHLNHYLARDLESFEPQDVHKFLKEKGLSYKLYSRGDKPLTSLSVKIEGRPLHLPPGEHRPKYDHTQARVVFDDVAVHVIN

[2] = target: T2, Tyrosinase (Agaricus bisporus) (UniProt O42713); test: Competitive inhibition of mushroom tyrosinase using L-tyrosine as substrate assessed increase in Km L-tyrosine by Line-Weaver-Burk plot analysis
T2 sequence (whole entry): T1 sequence (O42713 whole entry)

B16 [3] = test: Antimelanogenic activity in mouse B16 cells assessed as inhibition of alpha-MSH-induced melanin formation after 24 hrs by spectrophotometric assay; format: functional, cell-based
[4] = target: T3, Tyrosinase (Mus musculus) (UniProt P11344); test: Inhibition of MSHalpha-stimulated tyrosinase activity in mouse B16 cells using L-DOPA as substrate after 24 hrs by […]; format: cell-based
T3 sequence (whole entry): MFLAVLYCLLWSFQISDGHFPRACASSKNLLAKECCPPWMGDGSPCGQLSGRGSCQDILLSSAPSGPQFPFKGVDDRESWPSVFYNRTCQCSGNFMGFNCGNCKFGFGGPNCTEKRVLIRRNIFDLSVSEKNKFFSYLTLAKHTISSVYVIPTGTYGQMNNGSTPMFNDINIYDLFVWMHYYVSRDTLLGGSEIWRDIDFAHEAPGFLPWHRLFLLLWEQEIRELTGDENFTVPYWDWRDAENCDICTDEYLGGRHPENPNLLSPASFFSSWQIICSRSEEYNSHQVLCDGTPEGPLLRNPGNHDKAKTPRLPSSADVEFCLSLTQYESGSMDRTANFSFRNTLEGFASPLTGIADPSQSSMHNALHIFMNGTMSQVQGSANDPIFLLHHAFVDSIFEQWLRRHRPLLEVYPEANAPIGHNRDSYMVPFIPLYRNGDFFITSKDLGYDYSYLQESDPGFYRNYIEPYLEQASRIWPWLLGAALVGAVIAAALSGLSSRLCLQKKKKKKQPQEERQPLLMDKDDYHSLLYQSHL

[5] = target: T2, Tyrosinase (Agaricus bisporus); test: Competitive inhibition of mushroom tyrosinase using L-tyrosine as substrate at 1.25 uM by Line-Weaver-Burk plot analysis
[6] = target: T2, Tyrosinase (Agaricus bisporus); test: Competitive inhibition of mushroom tyrosinase using L-tyrosine as substrate at 20 uM by Line-Weaver-Burk plot analysis

Row | SMILES | Activity (B16 [1]) | IC50 (Tyrosinase) [µM] | inhibition [2] | inhibition (B16 [3]) | inhibition [4] | Kic [5] [×10⁻⁷ M] | Kic [6] [µM]
1 | COc1ccc(/C=C2\SC(=O)NC2=O)cc1O | Non-toxic | 9.87 | Active | Dose-dependent effect | Active | 4.13 | 1.38
2 | O=C1NC(=O)/C(=C/c2ccc(O)cc2)S1 | Non-toxic | 13.4 | Active | Dose-dependent effect | Active | 3.74 | 0.84
